Results from ChEMBL document CHEMBL4715878 (J Med Chem, 2020).

Tests used:
AU565 = test: Antiproliferative activity against human AU565 cells assessed as reduction in cell viability incubated for 72 hrs by WST8 assay; format: functional, cell-based; conditions: AU565, 72 h
BT-474 = test: Antiproliferative activity against human BT474 cells assessed as reduction in cell viability incubated for 72 hrs by WST8 assay; format: functional, cell-based; conditions: BT-474, 72 h
MCF7 [1] = test: Antiproliferative activity against human MCF7 cells assessed as reduction in cell viability incubated for 72 hrs by WST8 assay; format: functional, cell-based; conditions: MCF7, 72 h
MDA-MB-231 = test: Antiproliferative activity against human MDA-MB-231 cells assessed as reduction in cell viability incubated for 72 hrs by WST8 assay; format: functional, cell-based; conditions: MDA-MB-231, 72 h
[2] = system: Panel NCI-60 (60 carcinoma cell lines); test: Antiproliferative activity against human NCI60 cells assessed as mean cell growth at 10 uM after 48 hrs by SRB assay relative to control; format: functional
[3] = Antiproliferative activity against human BC assessed as lethality at 10 uM after 48 hrs by SRB assay relative to control; format: functional
[4] = Antiproliferative activity against human BC assessed as cell growth inhibition at 10 uM after 48 hrs by SRB assay relative to control; format: functional; conditions: read-out: GI
MCF7 [5] = test: Potency index, ratio of lapatinib IC50 to test compound IC50 for antiproliferative activity against human MCF7 cells; format: functional
[6] = system: Panel NCI-60 (60 carcinoma cell lines); test: Antiproliferative activity against human NCI60 cells assessed as lethality at 10 uM after 48 hrs by SRB assay relative to control; format: functional
MDA-MB-468 [7] = test: Antiproliferative activity against human MDA-MB-468 cells assessed as cell growth inhibition at 10 uM after 48 hrs by SRB assay relative to control; format: functional; conditions: read-out: GI
[8] = Antiproliferative activity against human MDA-MB-231 cells assessed as lethality at 10 uM after 48 hrs by SRB assay relative to control; format: functional, MDA-MB-23
MCF7 [9] = test: Antiproliferative activity against human MCF7 cells assessed as lethality at 10 uM after 48 hrs by SRB assay relative to control; format: functional
MDA-MB-468 [10] = test: Antiproliferative activity against human MDA-MB-468 cells assessed as lethality at 10 uM after 48 hrs by SRB assay relative to control; format: functional
MDA-MB-468 [11] = test: Antiproliferative activity against human MDA-MB-468 cells assessed as cell growth inhibition after 48 hrs by SRB assay; format: functional
[12] = molecular target: Epidermal growth factor receptor (Homo sapiens, UniProt P00533); conditions: 0.5 h
Description: Effect on human EGFR in presence of substrate and [gamma-32ATP] at 10 uM incubated for 30 mins by scintillation counting based radiometry assay relative to control

[13] = molecular target: Platelet-derived growth factor receptor alpha (Homo sapiens, UniProt P16234); test: Effect on human recombinant N-terminal GST-tagged PDGFRalpha (550 to end residues) expressed in baculovirus infected Sf9 insect cells in presence of substrate and [gamma-32ATP] at 10 uM incubated for 30 mins by scintillation counting based radiometry assay relative to control; conditions: 0.5 h, read-out: Activity
[14] = molecular target: Receptor tyrosine-protein kinase erbB-4 (Homo sapiens, UniProt Q15303); test: Effect on human recombinant N-terminal GST-tagged HER4 (682 to 993) expressed in baculovirus infected Sf9 insect cells in presence of substrate and [gamma-32ATP] at 10 uM incubated for 30 mins by scintillation counting based radiometry assay relative to control; conditions: 0.5 h, read-out: Activity
[15] = molecular target: T1, Receptor tyrosine-protein kinase erbB-2 (Homo sapiens, UniProt P04626); conditions: Sf9, human, 0.5 h
in vitro [16] = conditions: CD-1, mouse, liver microsomes
in vitro [17] = conditions: CD-1, mouse, microsomes
[18] = molecular target: T1, Receptor tyrosine-protein kinase erbB-2; test: Inhibition of HER2 (unknown origin) in presence of substrate incubated for 30 mins by ADP-Glo assay
[19] = molecular target: T1, Receptor tyrosine-protein kinase erbB-2; test: Inhibition of wild-type HER2 (unknown origin) at 0.5 nM in presence of substrate incubated for 30 mins by ADP-Glo assay relative to control

Sequence of Platelet-derived growth factor receptor alpha (P16234 whole entry): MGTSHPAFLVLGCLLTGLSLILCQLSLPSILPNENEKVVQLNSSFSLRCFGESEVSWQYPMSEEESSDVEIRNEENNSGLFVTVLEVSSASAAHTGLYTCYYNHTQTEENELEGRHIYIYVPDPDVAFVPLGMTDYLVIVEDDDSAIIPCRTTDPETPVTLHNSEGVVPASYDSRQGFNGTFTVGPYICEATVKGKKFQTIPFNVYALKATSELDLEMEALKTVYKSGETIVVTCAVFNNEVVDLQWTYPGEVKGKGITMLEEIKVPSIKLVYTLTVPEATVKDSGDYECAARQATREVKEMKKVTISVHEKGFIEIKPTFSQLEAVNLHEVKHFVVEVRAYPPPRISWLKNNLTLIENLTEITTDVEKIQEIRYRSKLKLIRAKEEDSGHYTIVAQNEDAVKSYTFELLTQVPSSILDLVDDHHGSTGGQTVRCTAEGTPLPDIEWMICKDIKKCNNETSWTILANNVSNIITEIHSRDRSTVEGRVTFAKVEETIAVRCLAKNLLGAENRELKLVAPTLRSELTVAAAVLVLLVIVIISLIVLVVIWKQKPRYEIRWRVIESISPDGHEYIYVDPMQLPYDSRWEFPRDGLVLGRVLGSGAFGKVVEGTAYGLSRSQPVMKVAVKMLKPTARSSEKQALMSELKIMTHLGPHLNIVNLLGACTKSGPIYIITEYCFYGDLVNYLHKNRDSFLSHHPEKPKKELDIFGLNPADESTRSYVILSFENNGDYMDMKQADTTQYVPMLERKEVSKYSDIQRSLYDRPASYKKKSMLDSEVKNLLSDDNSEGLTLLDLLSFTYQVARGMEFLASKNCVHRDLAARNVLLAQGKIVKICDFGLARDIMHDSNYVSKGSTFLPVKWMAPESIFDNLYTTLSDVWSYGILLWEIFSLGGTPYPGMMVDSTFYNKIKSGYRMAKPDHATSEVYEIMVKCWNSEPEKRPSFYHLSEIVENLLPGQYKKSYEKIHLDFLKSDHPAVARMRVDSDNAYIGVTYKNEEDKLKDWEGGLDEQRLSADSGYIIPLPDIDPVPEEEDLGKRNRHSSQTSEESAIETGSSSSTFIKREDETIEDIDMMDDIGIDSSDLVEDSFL
Sequence of Receptor tyrosine-protein kinase erbB-4 (Q15303 whole entry): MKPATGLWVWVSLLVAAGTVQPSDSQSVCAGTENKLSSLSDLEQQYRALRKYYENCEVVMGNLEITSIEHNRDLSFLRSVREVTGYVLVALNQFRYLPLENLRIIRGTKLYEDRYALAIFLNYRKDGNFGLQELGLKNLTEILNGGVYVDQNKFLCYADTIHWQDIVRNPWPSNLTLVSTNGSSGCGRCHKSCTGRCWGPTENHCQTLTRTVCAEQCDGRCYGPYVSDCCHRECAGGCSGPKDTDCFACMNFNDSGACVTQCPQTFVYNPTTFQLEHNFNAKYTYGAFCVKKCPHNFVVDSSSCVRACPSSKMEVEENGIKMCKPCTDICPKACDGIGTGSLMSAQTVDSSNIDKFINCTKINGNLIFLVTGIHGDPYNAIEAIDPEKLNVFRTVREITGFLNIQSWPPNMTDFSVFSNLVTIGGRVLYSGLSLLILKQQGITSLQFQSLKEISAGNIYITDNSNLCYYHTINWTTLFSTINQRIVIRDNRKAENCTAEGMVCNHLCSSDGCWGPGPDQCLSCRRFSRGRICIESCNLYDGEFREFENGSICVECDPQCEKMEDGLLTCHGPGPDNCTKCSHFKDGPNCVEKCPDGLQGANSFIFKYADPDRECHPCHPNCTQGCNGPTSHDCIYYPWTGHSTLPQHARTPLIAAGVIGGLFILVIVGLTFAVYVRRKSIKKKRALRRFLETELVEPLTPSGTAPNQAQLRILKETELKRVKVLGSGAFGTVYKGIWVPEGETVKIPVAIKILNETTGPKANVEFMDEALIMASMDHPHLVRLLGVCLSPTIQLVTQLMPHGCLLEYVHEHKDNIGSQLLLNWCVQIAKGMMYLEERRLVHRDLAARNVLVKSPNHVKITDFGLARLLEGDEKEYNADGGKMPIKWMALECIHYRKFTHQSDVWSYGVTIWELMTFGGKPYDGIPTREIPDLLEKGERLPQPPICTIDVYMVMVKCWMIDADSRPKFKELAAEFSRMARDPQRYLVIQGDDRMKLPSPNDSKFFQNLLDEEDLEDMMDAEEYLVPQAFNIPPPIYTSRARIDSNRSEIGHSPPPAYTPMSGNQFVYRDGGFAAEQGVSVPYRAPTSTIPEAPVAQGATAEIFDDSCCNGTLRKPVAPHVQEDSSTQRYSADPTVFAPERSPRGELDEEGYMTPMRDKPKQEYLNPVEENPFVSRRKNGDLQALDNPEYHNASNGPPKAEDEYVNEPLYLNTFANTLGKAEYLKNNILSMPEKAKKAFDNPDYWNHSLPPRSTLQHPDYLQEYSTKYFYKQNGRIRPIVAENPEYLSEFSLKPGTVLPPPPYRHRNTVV
Sequence of Epidermal growth factor receptor (P00533 whole entry): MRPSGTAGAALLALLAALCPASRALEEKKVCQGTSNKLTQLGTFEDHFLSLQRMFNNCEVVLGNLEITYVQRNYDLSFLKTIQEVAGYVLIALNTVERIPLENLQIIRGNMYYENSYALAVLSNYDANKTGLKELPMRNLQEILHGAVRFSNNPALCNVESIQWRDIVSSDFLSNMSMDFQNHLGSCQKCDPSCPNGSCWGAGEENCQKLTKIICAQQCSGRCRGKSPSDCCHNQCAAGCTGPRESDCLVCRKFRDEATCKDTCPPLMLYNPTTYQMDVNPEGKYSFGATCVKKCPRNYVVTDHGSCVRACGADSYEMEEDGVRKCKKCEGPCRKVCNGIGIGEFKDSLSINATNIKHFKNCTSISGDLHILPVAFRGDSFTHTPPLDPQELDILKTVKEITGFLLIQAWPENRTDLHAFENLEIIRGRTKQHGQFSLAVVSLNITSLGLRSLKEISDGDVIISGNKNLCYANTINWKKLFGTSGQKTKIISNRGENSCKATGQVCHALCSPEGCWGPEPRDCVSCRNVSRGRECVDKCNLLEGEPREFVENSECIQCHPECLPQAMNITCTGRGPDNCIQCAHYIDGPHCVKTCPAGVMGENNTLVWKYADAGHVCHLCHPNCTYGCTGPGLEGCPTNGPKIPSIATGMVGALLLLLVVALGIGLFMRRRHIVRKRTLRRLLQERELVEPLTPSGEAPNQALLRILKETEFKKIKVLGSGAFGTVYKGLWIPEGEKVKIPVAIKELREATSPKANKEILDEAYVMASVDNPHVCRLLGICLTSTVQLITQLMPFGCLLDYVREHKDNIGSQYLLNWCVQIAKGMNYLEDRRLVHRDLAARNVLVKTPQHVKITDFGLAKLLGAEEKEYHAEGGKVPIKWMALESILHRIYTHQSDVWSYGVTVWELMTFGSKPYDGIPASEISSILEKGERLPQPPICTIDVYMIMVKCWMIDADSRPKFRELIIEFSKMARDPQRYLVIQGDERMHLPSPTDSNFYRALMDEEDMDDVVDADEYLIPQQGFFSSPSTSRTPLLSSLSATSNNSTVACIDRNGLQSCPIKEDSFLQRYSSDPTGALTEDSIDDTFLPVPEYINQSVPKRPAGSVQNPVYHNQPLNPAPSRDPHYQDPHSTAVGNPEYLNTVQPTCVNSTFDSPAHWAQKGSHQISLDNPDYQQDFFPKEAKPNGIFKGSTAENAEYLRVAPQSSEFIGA
T1 sequence (P04626 whole entry): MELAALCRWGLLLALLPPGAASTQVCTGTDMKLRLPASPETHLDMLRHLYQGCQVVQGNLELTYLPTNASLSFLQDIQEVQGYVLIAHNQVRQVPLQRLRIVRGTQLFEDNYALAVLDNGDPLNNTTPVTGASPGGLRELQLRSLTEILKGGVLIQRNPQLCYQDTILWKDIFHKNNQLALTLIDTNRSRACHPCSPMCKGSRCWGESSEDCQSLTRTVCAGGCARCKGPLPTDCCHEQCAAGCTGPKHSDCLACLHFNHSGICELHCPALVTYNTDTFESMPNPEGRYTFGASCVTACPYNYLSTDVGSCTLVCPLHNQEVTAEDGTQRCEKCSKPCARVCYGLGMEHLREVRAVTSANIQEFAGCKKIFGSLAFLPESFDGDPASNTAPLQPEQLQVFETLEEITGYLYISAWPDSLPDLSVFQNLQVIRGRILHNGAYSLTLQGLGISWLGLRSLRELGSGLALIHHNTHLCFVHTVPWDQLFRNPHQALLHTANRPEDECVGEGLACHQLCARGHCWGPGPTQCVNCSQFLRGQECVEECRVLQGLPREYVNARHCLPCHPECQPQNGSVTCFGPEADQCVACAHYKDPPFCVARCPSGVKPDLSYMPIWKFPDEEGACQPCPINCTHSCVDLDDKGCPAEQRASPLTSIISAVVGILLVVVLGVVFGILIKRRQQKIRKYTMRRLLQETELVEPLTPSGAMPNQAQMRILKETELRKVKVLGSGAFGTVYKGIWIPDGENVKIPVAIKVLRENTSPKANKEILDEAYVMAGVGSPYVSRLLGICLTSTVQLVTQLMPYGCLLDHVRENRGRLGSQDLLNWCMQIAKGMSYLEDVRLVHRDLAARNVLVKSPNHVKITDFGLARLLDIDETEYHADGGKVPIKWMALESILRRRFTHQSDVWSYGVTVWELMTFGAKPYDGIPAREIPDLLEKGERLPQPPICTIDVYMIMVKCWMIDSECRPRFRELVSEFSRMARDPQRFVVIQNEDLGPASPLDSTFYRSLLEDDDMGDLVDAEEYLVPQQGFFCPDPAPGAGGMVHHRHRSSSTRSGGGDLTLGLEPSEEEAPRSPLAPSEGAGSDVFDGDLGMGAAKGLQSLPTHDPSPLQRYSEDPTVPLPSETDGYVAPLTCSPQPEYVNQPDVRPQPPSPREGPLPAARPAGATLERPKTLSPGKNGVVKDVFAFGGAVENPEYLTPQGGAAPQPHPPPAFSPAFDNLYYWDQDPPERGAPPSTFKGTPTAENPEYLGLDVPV

Compound | IC50 (AU565) [nM] | IC50 (BT-474) [nM] | IC50 (MCF7 [1]) [nM] | IC50 (MDA-MB-231) [nM] | activity at 10 µM [13] [%] | activity at 10 µM [14] [%] | further results
Fc1cccc(Oc2ccc(Nc3ncnc4ccc(OCCCN5CCOCC5)cc34)cc2Cl)c1 | 311 | 283 | 8330 | 10200 |  |  | 
CN1CCN(CCCOc2ccc3ncnc(Nc4ccc(Oc5cccc(F)c5)c(Cl)c4)c3c2)CC1 | 419 | 221 | 913 | 1700 |  |  | Activity [2]: 11.85%; Activity [3]: <=78.7%; inhibition of growth at 10 µM [4]: ≤ 78.7%; Ratio IC50 (MCF7 [5]): <=20; Activity [6]: 1.3%; inhibition of growth at 10 µM (MDA-MB-468 [7]): 18.8%
Cc1cccc(Oc2ccc(Nc3ncnc4ccc(NC(=O)CN5CCOCC5)cc34)cc2Cl)c1 | 152 | 91 | 9640 | 13800 |  |  | 
CN1CCN(CC(=O)Nc2ccc3ncnc(Nc4ccc(Oc5cccc(C(F)(F)F)c5)c(Cl)c4)c3c2)CC1 | 441 | 369 | 2070 | 2560 |  |  | Activity [2]: 11.85%; Activity [3]: <=78.7%; inhibition of growth at 10 µM [4]: ≤ 78.7%; Activity [8]: 11.7%; Activity (MCF7 [9]): 11.7%; Activity (MDA-MB-468 [10]): 11.7%; Activity [6]: 1.3%; inhibition of growth at 10 µM (MDA-MB-468 [7]): 18.8%
OCCNCCCOc1ccc2ncnc(Nc3ccc(Oc4cccc(C(F)(F)F)c4)c(Cl)c3)c2c1 | 456 | 262 | 1510 | 1950 |  |  | Activity [2]: 11.85%; Activity [3]: <=78.7%; inhibition of growth at 10 µM [4]: ≤ 78.7%; Activity [8]: 18%; Activity (MCF7 [9]): 18%; Ratio IC50 (MCF7 [5]): <=20; Activity (MDA-MB-468 [10]): 18%; Activity [6]: 1.3%; GI50 (MDA-MB-468 [11]): 600 nM; inhibition of growth at 10 µM (MDA-MB-468 [7]): 18.8%
CN1CCN(CCCOc2ccc3ncnc(Nc4ccc(Oc5cccc(C(F)(F)F)c5)c(Cl)c4)c3c2)CC1 | 447 | 200 | 1680 | 1060 | 115 | -99 | activity at 10 µM [12]: -78%; Activity [2]: 11.85%; Activity [3]: <=78.7%; inhibition of growth at 10 µM [4]: ≤ 78.7%; Activity [8]: 18%; Activity (MCF7 [9]): 18%; Ratio IC50 (MCF7 [5]): <=20; Activity (MDA-MB-468 [10]): 18%; Activity [6]: 1.3%; activity at 10 µM [15]: -92%; inhibition of growth at 10 µM (MDA-MB-468 [7]): 18.8%
CN1CCN(Cc2ccc(C(=O)Nc3ccc4ncnc(Nc5ccc(Oc6cccc(F)c6)c(Cl)c5)c4c3)cc2)CC1 | 767 | 506 | 1620 | 1900 |  |  | Ratio IC50 (MCF7 [5]): <=20
CCN(CC)CCCOc1ccc2ncnc(Nc3ccc(Oc4cccc(C(F)(F)F)c4)c(Cl)c3)c2c1 | 289 | 213 | 1600 | 1370 |  |  | Activity [2]: 11.85%; Activity [3]: <=78.7%; inhibition of growth at 10 µM [4]: ≤ 78.7%; Activity [8]: 11.7%; Activity (MCF7 [9]): 11.7%; Ratio IC50 (MCF7 [5]): <=20; Activity (MDA-MB-468 [10]): 11.7%; Activity [6]: 1.3%; GI50 (MDA-MB-468 [11]): 900 nM; inhibition of growth at 10 µM (MDA-MB-468 [7]): 18.8%
O=C(CN1CCOCC1)Nc1ccc2ncnc(Nc3ccc(OCc4cccc(F)c4)c(Cl)c3)c2c1 | 130 | 117 | 7970 | 11600 | 55 | -97 | activity at 10 µM [12]: -81%; activity at 10 µM [15]: -92%
O=C(Nc1ccc2ncnc(Nc3ccc(Oc4cccc(F)c4)c(Cl)c3)c2c1)c1ccc(CN2CCOCC2)cc1 | 923 | 540 | 6220 | 11500 |  |  | 
CN1CCN(CC(=O)Nc2ccc3ncnc(Nc4ccc(Oc5cccc(F)c5)c(Cl)c4)c3c2)CC1 | 491 | 221 | 5990 | 5450 |  |  | 
Fc1cccc(COc2ccc(Nc3ncnc4ccc(OCCCN5CCOCC5)cc34)cc2Cl)c1 | 149 | 81 | 6190 | 7320 |  |  | 
CN(C)Cc1ccc(C(=O)Nc2ccc3ncnc(Nc4ccc(Oc5cccc(F)c5)c(Cl)c4)c3c2)cc1 | 225 | 339 | 2640 | 5000 |  |  | Activity [2]: 11.85%; Activity [3]: <=78.7%; inhibition of growth at 10 µM [4]: ≤ 78.7%; Activity [8]: 11.7%; Activity (MCF7 [9]): 11.7%; Activity (MDA-MB-468 [10]): 11.7%; Activity [6]: 1.3%; inhibition of growth at 10 µM (MDA-MB-468 [7]): 18.8%
O=C(CN1CCOCC1)Nc1ccc2ncnc(Nc3ccc(Oc4cccc(C(F)(F)F)c4)c(Cl)c3)c2c1 | 364 | 298 | 11200 | 8850 | 82 | -94 | activity at 10 µM [12]: -71%; activity at 10 µM [15]: -91%
FC(F)(F)c1cccc(Oc2ccc(Nc3ncnc4ccc(OCCCN5CCOCC5)cc34)cc2Cl)c1 | 348 | 246 | 5530 | 6730 |  |  | GI50 (MDA-MB-468 [11]): 500 nM
CCN(CC)CC(=O)Nc1ccc2ncnc(Nc3ccc(Oc4cccc(F)c4)c(Cl)c3)c2c1 | 684 | 532 | 5680 | 3920 |  |  | 
CS(=O)(=O)CCNCc1ccc(-c2ccc3ncnc(Nc4ccc(OCc5cccc(F)c5)c(Cl)c4)c3c2)o1 [LAPATINIB] | 64 | 64 | 6300 | 10400 | 56 | -99 | activity at 10 µM [15]: -52%
CN(C)CC(=O)Nc1ccc2ncnc(Nc3ccc(Oc4cccc(C(F)(F)F)c4)c(Cl)c3)c2c1 | 408 | 478 | 5100 | 2660 |  |  | 
CNC(=O)c1cc(Oc2ccc(NC(=O)Nc3ccc(Cl)c(C(F)(F)F)c3)cc2)ccn1 [SORAFENIB] |  |  |  |  | -55 | -60 | 
CCN(CC)CC(=O)Nc1ccc2ncnc(Nc3ccc(Oc4cccc(C)c4)c(Cl)c3)c2c1 | 219 | 265 | 2680 | 2830 |  |  | 
Cc1cccc(Oc2ccc(Nc3ncnc4ccc(NC(=O)CNCCO)cc34)cc2Cl)c1 | 304 | 132 | 10800 | 7830 | 86 | -99 | activity at 10 µM [12]: -78%; activity at 10 µM [15]: -93%
C[C@]12CC[C@H]3[C@@H](CCC4=CC(=O)CC[C@@]43C)[C@@H]1CC[C@@H]2O [TESTOSTERONE] |  |  |  |  |  |  | CLint scaled at 1 h, 100 µM (in vitro [16]): 1110 mL/min/kg; microsomal CLint at 1 h, 100 µM (in vitro [17]): 279 µL/min/mg
Cc1cccc(Oc2ccc(Nc3ncnc4ccc(NC(=O)CN(C)C)cc34)cc2Cl)c1 | 154 | 134 | 2700 | 4510 |  |  | GI50 (MDA-MB-468 [11]): 200 nM
O=C(CN1CCOCC1)Nc1ccc2ncnc(Nc3ccc(Oc4cccc(F)c4)c(Cl)c3)c2c1 | 545 | 373 | 18100 | 30200 | 18 | -97 | activity at 10 µM [12]: -67%; activity at 10 µM [15]: -92%
O=C(CNCCO)Nc1ccc2ncnc(Nc3ccc(OCc4cccc(F)c4)c(Cl)c3)c2c1 | 220 | 240 | 8620 | 8780 | 54 | -98 | activity at 10 µM [12]: -78%; IC50 [18]: 10.4 nM; inhibition [19]: 3%; activity at 10 µM [15]: -93%
